Measured values reported in US11161856B2 (H. Lundbeck A/S, priority 2017, dated 2021).

Legend:
MGLL = target: T1, MGLL (Mus musculus, UniProt O35678); assay: In vitro competitive activity-based protein profiling, mouse brain proteome (MGLL); assay type: biochemical; design: IC50 MGLL Brain (Mouse, μM): scale not given here; conditions: for % Inh MGLL Brain (Mouse, μM): concentration not given (μM)
T1 construct: Brain; from tissue; host or cells: mouse brain proteome
T1 sequence (O35678 1-303): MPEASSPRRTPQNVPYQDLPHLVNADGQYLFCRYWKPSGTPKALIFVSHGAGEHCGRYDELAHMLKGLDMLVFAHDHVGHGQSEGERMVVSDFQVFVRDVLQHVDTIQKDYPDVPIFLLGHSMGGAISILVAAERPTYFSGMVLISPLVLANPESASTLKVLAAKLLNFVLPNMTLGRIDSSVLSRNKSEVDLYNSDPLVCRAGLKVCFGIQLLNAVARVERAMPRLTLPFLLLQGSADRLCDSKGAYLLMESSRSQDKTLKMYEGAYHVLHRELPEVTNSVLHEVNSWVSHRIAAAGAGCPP

ABHD6 = target: T2, ABHD6 (Mus musculus, UniProt Q8R2Y0); assay: In vitro competitive activity-based protein profiling, mouse brain proteome (ABHD6); assay type: biochemical; conditions: mouse brain proteome; concentration not given (μM)
T2 construct: Brain; from tissue; host or cells: mouse brain proteome
T2 sequence (Q8R2Y0 1-336): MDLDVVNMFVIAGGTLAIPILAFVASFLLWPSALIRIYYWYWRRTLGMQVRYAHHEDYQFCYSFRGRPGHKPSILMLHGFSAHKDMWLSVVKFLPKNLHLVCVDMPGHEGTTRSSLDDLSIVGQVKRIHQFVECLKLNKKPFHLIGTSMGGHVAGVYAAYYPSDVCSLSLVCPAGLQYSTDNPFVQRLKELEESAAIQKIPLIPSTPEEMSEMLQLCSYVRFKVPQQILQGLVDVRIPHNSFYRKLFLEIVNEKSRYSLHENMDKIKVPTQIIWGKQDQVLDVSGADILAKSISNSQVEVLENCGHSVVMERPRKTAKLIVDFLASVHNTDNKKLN
Protocol: [The source words this procedure for another target and reports this target under the same test.] In Vitro Competitive Activity-Based Protein Profiling.
Proteomes (human prefrontal cortex or cell membrane fractions) (50 μL, 1.0 mg/mL total protein concentration) were preincubated with varying concentrations of inhibitors at 37° C. After 30 min, FP-Rh or HT-01 (1.0 μL, 50 μM in DMSO) was added and the mixture was incubated for another 30 min at room temperature. Reactions were quenched with SDS loading buffer (15 μL-4×) and run on SDS-PAGE.

Row | SMILES | % Inh MGLL Brain (Mouse, μM) (MGLL) | % Inh ABHD6 Brain (Mouse, μM) (ABHD6) | IC50 MGLL Brain (Mouse, μM) (MGLL)
1 | O=C(OC(C(F)(F)F)C(F)(F)F)N1CCC2(CCN(Cc3ccc(Cl)cc3N3CCOCC3)CC2)C1 [Example 181, 1,1,1,3,3,3-Hexafluoropropan-2-yl 8-(4-chloro-2-morpholinobenzyl)-2,8-diazaspiro[4.5]decane-2-carboxylate] | ### (### is ≥75%) | # (# is ≤25%) | –
2 | CS(=O)(=O)N1CCCC12CCN(c1cc(Cl)ccc1CN1CCN(C(=O)OC(C(F)(F)F)C(F)(F)F)CC1)CC2 [Example 205, 1,1,1,3,3,3-Hexafluoropropan-2-yl 4-(4-chloro-2-(l-(methylsulfonyl)-1,8-diazaspiro[4.5]decan-8-yl)benzyl)piperazine-l-carboxylate] | ### (### is ≥75%) | ## (## is between 25 and 75%) | –
3 | O=C(OC(C(F)(F)F)C(F)(F)F)N1CCC2(CC1)CN(Cc1c(N3CCC4(CCOCC4)C3)cccc1C(F)(F)F)C2 [Example 52, 1,1,1,3,3,3-Hexafluoropropan-2-yl 2-(2-(8-oxa-2-azaspiro[4.5]decan-2-yl)-6-(trifluoromethyl)benzyl)-2,7-diazaspiro[3.5]nonane-7-carboxylate] | ### (### is ≥75%) | ### (### is ≥75%) | –
4 | O=C(OC(C(F)(F)F)C(F)(F)F)N1CC2(CCN(Cc3ccc(CN4CCOCC4)cc3)CC2)C1 [Example 18, 1,1,1,3,3,3-Hexafluoropropan-2-yl 7-(4-(morpholinomethyl)benzyl)-2,7-diazaspiro[3.5]nonane-2-carboxylate] | ## (## is between 25 and 75%) | ### (### is ≥75%) | –
5 | CS(=O)(=O)N1CCC2(CCN(c3cc(Cl)cc(CN4CCCC45CN(C(=O)OC(C(F)(F)F)C(F)(F)F)C5)c3)C2)CC1 [Example 237, 1,1,1,3,3,3-Hexafluoropropan-2-yl 5-(3-chloro-5-(8-(methylsulfonyl)-2,8-diazaspiro[4.5]decan-2-yl)benzyl)-2,5-diazaspiro[3.4]octane-2-carboxylate] | ### (### is ≥75%) | ## (## is between 25 and 75%) | –
6 | O=C(OC(C(F)(F)F)C(F)(F)F)N1CCC2(CC1)CN(Cc1ccccc1F)C2 [Example 98, 1,1,1,3,3,3-Hexafluoropropan-2-yl 2-(2-fluorobenzyl)-2,7-diazaspiro[3.5]nonane-7-carboxylate] | ### (### is ≥75%) | ### (### is ≥75%) | –
7 | O=C(OC(C(F)(F)F)C(F)(F)F)N1CCC2(CC1)CN(Cc1cccc(Oc3ccccc3)c1)C2 [Example 78, 1,1,1,3,3,3-Hexafluoropropan-2-yl 2-(3-phenoxybenzyl)-2,7-diazaspiro[3.5]nonane-7-carboxylate] | ### (### is ≥75%) | ### (### is ≥75%) | –
8 | O=C(OC(C(F)(F)F)C(F)(F)F)N1CCC2(CC1)CN(Cc1c(Cl)cccc1N1CCOCC1)C2 [Example 46, 1,1,1,3,3,3-Hexafluoropropan-2-yl 2-(2-chloro-6-morpholinobenzyl)-2,7-diazaspiro[3.5]nonane-7-carboxylate] | ### (### is ≥75%) | ### (### is ≥75%) | –
9 | CS(=O)(=O)N1CCCC12CCN(c1cc(C(F)(F)F)ccc1CN1CCN(C(=O)OC(C(F)(F)F)C(F)(F)F)CC1)CC2 [Example 209, 1,1,1,3,3,3-Hexafluoropiopan-2-yl 4-(2-(1-(methylsulfonyl)-1.8-diazaspiro[4.5]decan-8-yl)-4-(trifluoromethyl)benzyl) piperazine-1-carboxylate] | ### (### is ≥75%) | # (# is ≤25%) | –
10 | CS(=O)(=O)N1CC2(CCN(c3cc(Cl)ccc3CN3CCN(C(=O)OC(C(F)(F)F)C(F)(F)F)CC3)C2)C1 [Example 175, 1,1,1,3,3,3-Hexafluoropropan-2-yl 4-(4-chloro-2-(2-(methylsulfonyl)-2,6-diazaspiro[3.4]octan-6-yl)benzyl)piperazine-1-carboxylate] | ### (### is ≥75%) | # (# is ≤25%) | –
11 | O=C(O)C1CCN(c2cc(C(F)(F)F)ccc2CN2CCC3(CC2)CCN(C(=O)OC(C(F)(F)F)C(F)(F)F)C3)CC1 [Example 195, l-(2-((2-(((l,1,1,3,3,3-Hexafluoropropan-2-yl)oxy)carbonyl)-2,8-diazaspino[4.5]decan-8-yl)melhyl)-5-(trifluoromethyl)phenyl)piperidine-4-carboxylic acid] | ### (### is ≥75%) | # (# is ≤25%) | –
12 | CC(=O)N1CC2(CCN(c3cc(Cl)ccc3CN3CCN(C(=O)OC(C(F)(F)F)C(F)(F)F)CC3)C2)C1 [Example 176, 1,1,1,3,3,3-Hexafluoropropan-2-yl 4-(2-(2-acetyl-2,6-diazaspiro[3.4]octan-6-yl)-4-chlorobenzyl)piperazine-1-carboxylate] | ### (### is ≥75%) | # (# is ≤25%) | –
13 | O=C(OC(C(F)(F)F)C(F)(F)F)N1CCC2(CC1)CN(Cc1c(Cl)cccc1N1CCC3(CCOCC3)C1)C2 [Example 48, 1,1,1,3,3,3-Hexafluoropropan-2-yl 2-(2-chloro-6-(8-oxa-2-azaspiro[4.5]decan-2-yl)benzyl)-2,7-diazaspiro[3.5]nonane-7-carboxylate] | ### (### is ≥75%) | ### (### is ≥75%) | –
14 | O=C(OC(C(F)(F)F)C(F)(F)F)N1CCC2(CC1)CN(Cc1c(Cl)cccc1N1CCCCC1)C2 [Example 45, 1,1,1,3,3,3-Hexafluoropropan-2-yl 2-(2-chloro-6-(piperidin-1-yl)benzyl)-2,7-diazaspiro[3,5]nonane-7-carboxylate] | ### (### is ≥75%) | ### (### is ≥75%) | –

Other lines, results leading:

Row | % Inh MGLL Brain (Mouse, μM) (MGLL) | % Inh ABHD6 Brain (Mouse, μM) (ABHD6) | IC50 MGLL Brain (Mouse, μM) (MGLL) | SMILES
15 | ### (### is ≥75%) | # (# is ≤25%) | * * * | CC(=O)N1CCC2(CC1)CCN(c1cc(Cl)ccc1CN1CCN(C(=O)OC(C(F)(F)F)C(F)(F)F)CC1)C2 [Example 29, 1,1,1,3,3,3-Hexafluoropropan-2-yl 4-(2-(8-acetyl-2,8-diazaspiro[4.5]decan-2-yl)-4-chlorobenzyl)piperazine-1-carboxylate]
16 | ### (### is ≥75%) | ### (### is ≥75%) | – | O=C(OC(C(F)(F)F)C(F)(F)F)N1CC2(CCN(Cc3ccc(C(F)(F)F)cc3N3CCOCC3)CC2)C1 [Example 40, 1,1,1,3,3,3-Hexafluoropropan-2-yl 7-(2-morpholino-4-(triiluoromethyl)benzyl)-2,7-diazaspiro[3.5]nonane-2-carboxylate]
17 | ### (### is ≥75%) | # (# is ≤25%) | – | CN1CCC2(CCN(c3cc(Cl)ccc3CN3CCN(C(=O)OC(C(F)(F)F)C(F)(F)F)CC3)CC2)C1 [Example 177, 1,1,1,3,3,3-Hexafluoropropan-2-yl 4-(4-chloro-2-(2-methyl-2,8-diazaspiro[4.5]decan-8-yl)benzyl)piperazine-1-carboxylate]
18 | ## (## is between 25 and 75%) | ## (## is between 25 and 75%) | – | CC(=O)N1CC2(CCN(c3ccccc3CN3CCCCC34CN(C(=O)OC(C(F)(F)F)C(F)(F)F)C4)C2)C1 [Example 231, 1,1,1,3,3,3-Hexafluoropropan-2-yl 5-(2-(2-acetyl-2,6-diazaspiro[3.4]octan-6-yl)benzyl)-2,5-diazaspiro[3.5]nonane-2-carboxylate]
19 | ### (### is ≥75%) | ### (### is ≥75%) | – | CC(=O)N1CCN(c2cccc(C(F)(F)F)c2CN2CC3(CCN(C(=O)OC(C(F)(F)F)C(F)(F)F)CC3)C2)CC1 [Example 59, 1,1,1,3,3,3-Hexafluoropropan-2-yl 2-(2-(4-acetylpiperazin-1-yl)-6-(trifluoromethyl)benzyl)-2,7-diazaspiro[3.5]nonane-7-carboxylate]
20 | ### (### is ≥75%) | ### (### is ≥75%) | – | COc1cccc(CN2CC3(CCN(C(=O)OC(C(F)(F)F)C(F)(F)F)CC3)C2)c1 [Example 87, 1,1,1,3,3,3-Hexafluoropropan-2-yl 2-(3-methoxybenzyl)-2,7-diazaspiro[3.5]nonane-7-carboxylate]
21 | ### (### is ≥75%) | ### (### is ≥75%) | * * * | CC(=O)N1CCCc2cccc(CN3CC4(CCN(C(=O)OC(C(F)(F)F)C(F)(F)F)CC4)C3)c21 [Example 15, 1,1,1,3,3,3-Hexafluoropropan-2-yl 2-((1-acetyl-1,2,3,4-tetrahydroquinolin-8-yl)methyl)-2,7-diazaspiro[3.5]nonane-7-carboxylate]
